In test [1] the target is T1, NPC1-like intracellular cholesterol transporter 1 (Homo sapiens) (UniProt Q9UHC9).
T1 sequence (whole entry): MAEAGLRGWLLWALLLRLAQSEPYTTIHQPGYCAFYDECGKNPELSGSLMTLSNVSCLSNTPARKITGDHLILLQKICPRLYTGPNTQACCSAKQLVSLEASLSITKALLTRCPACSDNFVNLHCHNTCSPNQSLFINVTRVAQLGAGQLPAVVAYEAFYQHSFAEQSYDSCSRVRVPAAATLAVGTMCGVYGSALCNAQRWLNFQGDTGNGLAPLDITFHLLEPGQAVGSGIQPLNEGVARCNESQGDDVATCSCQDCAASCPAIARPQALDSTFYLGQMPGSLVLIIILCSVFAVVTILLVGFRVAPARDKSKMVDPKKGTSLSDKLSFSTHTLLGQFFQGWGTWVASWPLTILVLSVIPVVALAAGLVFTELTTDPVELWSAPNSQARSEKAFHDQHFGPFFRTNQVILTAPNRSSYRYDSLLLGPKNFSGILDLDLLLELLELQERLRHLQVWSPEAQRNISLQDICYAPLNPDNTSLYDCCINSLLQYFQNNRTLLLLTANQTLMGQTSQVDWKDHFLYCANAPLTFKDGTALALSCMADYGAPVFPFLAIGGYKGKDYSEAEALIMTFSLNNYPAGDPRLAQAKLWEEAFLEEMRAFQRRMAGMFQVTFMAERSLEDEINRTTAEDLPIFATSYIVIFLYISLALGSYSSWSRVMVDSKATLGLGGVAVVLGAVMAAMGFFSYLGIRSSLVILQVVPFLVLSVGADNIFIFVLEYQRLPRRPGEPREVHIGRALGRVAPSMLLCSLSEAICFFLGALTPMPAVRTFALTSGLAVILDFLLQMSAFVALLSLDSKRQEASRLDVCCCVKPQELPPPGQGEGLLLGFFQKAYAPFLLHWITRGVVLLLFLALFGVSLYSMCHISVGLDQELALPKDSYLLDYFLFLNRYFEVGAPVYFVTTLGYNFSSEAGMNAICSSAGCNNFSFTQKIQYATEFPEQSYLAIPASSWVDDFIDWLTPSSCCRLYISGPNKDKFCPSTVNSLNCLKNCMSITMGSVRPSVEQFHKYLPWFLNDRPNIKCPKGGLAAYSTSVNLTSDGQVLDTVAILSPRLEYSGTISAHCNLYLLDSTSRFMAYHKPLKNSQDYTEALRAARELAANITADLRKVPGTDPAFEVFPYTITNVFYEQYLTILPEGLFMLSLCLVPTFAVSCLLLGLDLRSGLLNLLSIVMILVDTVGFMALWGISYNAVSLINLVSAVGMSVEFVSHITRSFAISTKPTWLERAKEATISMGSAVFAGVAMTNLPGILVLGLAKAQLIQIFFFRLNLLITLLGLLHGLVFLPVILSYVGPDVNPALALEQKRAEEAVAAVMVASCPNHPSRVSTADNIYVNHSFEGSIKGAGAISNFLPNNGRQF
In words: Binding affinity to NPC1L1 (unknown origin) at 6.25 to 100 uM by SPR analysis. The settings on record: dose 6.25-100 µM. (In general: SPR reads the build-up and loss of mass on a sensor chip optically.)

Test [2] addresses T1, NPC1-like intracellular cholesterol transporter 1 (Homo sapiens). The experiment in a line: Inhibition of NPC1L1 in human Caco-2 cells assessed as decrease in uptake of cholesterol-d6 at 50 uM by HPLC-MS analysis. In kind it is cell-based.
The test system of test [3] is Caco-2. In words: Inhibition of PTL expression in human Caco-2 cells at 0.1 to 100 uM incubated for 24 hrs by Western blot analysis. Type of test: functional, cell-based. The settings on record: dose 0.1-100 µM. A general note: In western blotting, separated proteins are transferred to a membrane and probed.
Test [4] deals with Caco-2. The experiment in a line: Inhibition of NPC1L1 expression in human Caco-2 cells at 0.1 to 100 uM incubated for 24 hrs by Western blot analysis. Type of test: functional, cell-based. The settings on record: dose 0.1-100 µM.
For test [5], the target named is T1, NPC1-like intracellular cholesterol transporter 1 (Homo sapiens). In words: Non-competitive inhibition of NPC1L1 in human Caco-2 cells assessed as decrease in uptake of cholesterol at 50 uM by HPLC-MS based Lineweaver-Burk double reciprocal plot analysis. In kind it is cell-based.
The test system of test [6] is Caco-2. The experiment in a line: Inhibition of PTL mRNA expression in human Caco-2 cells at 100 uM incubated for 24 hrs by qRT-PCR analysis. Type of test: functional, cell-based.
Test [7] concerns Caco-2. In words: Inhibition of NPC1L1 mRNA expression in human Caco-2 cells at 100 uM incubated for 24 hrs by qRT-PCR analysis. In kind it is functional, cell-based. Background: Quantitative PCR measures a nucleic acid by following its amplification.

Active and inactive are the calls of the source. The rule behind the calls is not given here.

As to `CCCCCCCCCCC[C@@H](C[C@@H]1OC(=O)[C@H]1CCCCCC)OC(=O)[C@H](CC(C)C)NC=O`, the result in test [1] was Active. Besides, the inhibition result (in test [2]; with Caco-2 [3]) was “Active” throughout. In the test on Caco-2 [4], the inhibition entry was “inactive”.

As for `CCCCCCCCCCC[C@@H](C[C@@H]1OC(=O)[C@H]1CCCCCC)OC(=O)c1ccc(O)cc1`, the result in test [1] was Active. The inhibition entry (in test [2]; in test [5]; in the test with Caco-2 [6]; in the test on Caco-2 [3]) was “Active” throughout. For the same molecule, the inhibition entry in the test on Caco-2 [7] and in the test with Caco-2 [4] was “inactive” each time.

Take `CCCCCCCCCCC[C@@H](C[C@@H]1OC(=O)[C@H]1CCCCCC)OC(=O)c1cccc(O)c1`: the result in test [1] was Active.

`O=C1[C@H](CC[C@H](O)c2ccc(F)cc2)[C@@H](c2ccc(O)cc2)N1c1ccc(F)cc1`: the inhibition result (in test [2]; with Caco-2 [6]; in the test on Caco-2 [3]) was “Active” throughout. Besides, the inhibition entry with Caco-2 [7] and with Caco-2 [4] was “inactive” in each case.
